# US8637523B2, “Compounds for the reduction of beta-amyloid production” (Bristol-Myers Squibb Company, priority 2010, dated 2014)
# Read-outs that look alike come from different tables or passages of the source.
# System: Aβ42
# Assay: Cellular assay for inhibition of Aβ1-42 production (H4 APP751 SWE clone 8.20)
# Format: cell-based
# Conditions: H4 APP751 SWE clone 8.20 cells, 19 h incubation
# Outline: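 Inhibition values are IC50s fitted to Viewlux counts after a 19 h compound exposure at 37 °C. Aβ42 was captured by the neoepitope-specific antibody 565 (0.8 ng/well) paired with N-terminal 26D6 (75 ng/well), incubated overnight at 4 °C in pH 7.4 Tris-HCl buffer containing 0.2% BSA.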
# [1] = 19 h, unit inferred, read-out: Activity Rating (Aβ42 cellular IC50), numeric value
# [2] = 19 h, read-out: Activity Rating (Aβ42 cellular IC50), class symbol
# [3] = read-out: Activity Rating (Aβ42 cellular IC50), class symbol
# [4] = unit inferred, read-out: Activity Rating (Aβ42 cellular IC50), numeric value
molecule,measurement,setting,value
"Cc1ncn(-c2ccc3cc2OC/C=C\CN(C)c2nc(nc4c2CCC4c2ccc(F)cc2F)N3)n1 (centres unmarked) [Example 57A, (11Z)-18-(2,4-difluorophenyl)-14-methyl-7-(3-methyl-1H-1,2,4-triazol-1-yl)-10,13,14,16,17,18-hexahydro-15,2-(azeno)-8,4-(metheno)cyclopenta[h][1,6,10,12]oxatriazacycloheptadecine]",IC50,[1],5.5 nM
"Cc1ncn(-c2ccc3cc2OC/C=C\CN(C)c2nc(nc4c2CCC4c2ccc(F)cc2F)N3)n1 (centres unmarked) [Example 57B, (11Z)-18-(2,4-difluorophenyl)-14-methyl-7-(3-methyl-1H-1,2,4-triazol-1-yl)-10,13,14,16,17,18-hexahydro-15,2-(azeno)-8,4-(metheno)cyclopenta[h][1,6,10,12]oxatriazacycloheptadecine]",IC50,[2],10 to 100 nM
"Cc1ncn(-c2ccc3cc2OCC=CCCc2nc(nc4c2CCC4c2ccccc2)N3)n1 (centres unmarked) [Example 59A, (11E)-7-(3-methyl-1H-1,2,4-triazol-1-yl)-18-phenyl-10,13,14,16,17,18-hexahydro-15,2-(azeno)-8,4-(metheno)cyclopenta[h][1,10,12]oxadiazacycloheptadecine]",IC50,[3],< 10 nM
"Cc1ncn(-c2ccc3cc2OCC=CCCc2nc(nc4c2CCC4c2ccccc2)N3)n1 (centres unmarked) [Example 59B, (11E)-7-(3-methyl-1H-1,2,4-triazol-1-yl)-18-phenyl-10,13,14,16,17,18-hexahydro-15,2-(azeno)-8,4-(metheno)cyclopenta[h][1,10,12]oxadiazacycloheptadecine]",IC50,[4],32 nM
"Cc1ncn(-c2ccc3cc2OCCCN(C)c2nc(nc4c2CCC4c2ccccc2)N3)n1 (centres unmarked) [Example 60B, 13-methyl-7-(3-methyl-1H-1,2,4-triazol-1-yl)-17-phenyl-11,12,13,15,16,17-hexahydro-10H-14,2-(azeno)-8,4-(metheno)cyclopenta[g][1,5,9,11]oxatriazacyclohexadecine]",IC50,[2],10 to 100 nM
"Cc1ncn(-c2ccc3cc2OCCCCN(C)c2nc(nc4c2CCC4c2ccc(F)cc2F)N3)n1 (centres unmarked) [Example 61A, 18-(2,4-difluorophenyl)-14-methyl-7-(3-methyl-1H-1,2,4-triazol-1-yl)-10,11,12,13,14,16,17,18-octahydro-15,2-(azeno)-8,4-(metheno)cyclopenta[h][1,6,10,12]oxatriazacycloheptadecine]",IC50,[1],4.1 nM
"Cc1ncn(-c2ccc3cc2OCCCCN(C)c2nc(nc4c2CCC4c2ccc(F)cc2F)N3)n1 (centres unmarked) [Example 61B, 18-(2,4-difluorophenyl)-14-methyl-7-(3-methyl-1H-1,2,4-triazol-1-yl)-10,11,12,13,14,16,17,18-octahydro-15,2-(azeno)-8,4-(metheno)cyclopenta[h][1,6,10,12]oxatriazacycloheptadecine]",IC50,[2],10 to 100 nM
"Cc1ncn(-c2ccc3cc2OCCCCCc2nc(nc4c2CCC4c2ccccc2)N3)n1 (centres unmarked) [Example 62A, 7-(3-methyl-1H-1,2,4-triazol-1-yl)-18-phenyl-10,11,12,13,14,16,17,18-octahydro-15,2-(azeno)-8,4-(metheno)cyclopenta[h][1,10,12]oxadiazacycloheptadecine]",IC50,[2],< 10 nM
"Cc1ncn(-c2ccc3cc2OCCCCCc2nc(nc4c2CCC4c2ccccc2)N3)n1 (centres unmarked) [Example 62B, 7-(3-methyl-1H-1,2,4-triazol-1-yl)-18-phenyl-10,11,12,13,14,16,17,18-octahydro-15,2-(azeno)-8,4-(metheno)cyclopenta[h][1,10,12]oxadiazacycloheptadecine]",IC50,[1],22 nM
"Cc1ncn(-c2ccc3cc2OCCCNc2nc(nc4c2CCC4c2ccc(F)cc2F)N3)n1 (centres unmarked) [Example 63A, 17-(2,4-difluorophenyl)-7-(3-methyl-1H-1,2,4-triazol-1-yl)-11,12,13,15,16,17-hexahydro-10H-14,2-(azeno)-8,4-(metheno)cyclopenta[g][1,5,9,11]oxatriazacyclohexadecine]",IC50,[2],< 10 nM
"Cc1ncn(-c2ccc3cc2OCCCNc2nc(nc4c2CCC4c2ccc(F)cc2F)N3)n1 (centres unmarked) [Example 63B, 17-(2,4-difluorophenyl)-7-(3-methyl-1H-1,2,4-triazol-1-yl)-11,12,13,15,16,17-hexahydro-10H-14,2-(azeno)-8,4-(metheno)cyclopenta[g][1,5,9,11]oxatriazacyclohexadecine]",IC50,[1],25 nM
"Cc1ncn(-c2ccc3cc2OCCCCNc2nc(nc4c2CCC4c2ccc(F)cc2F)N3)n1 (centres unmarked) [Example 64A, 18-(2,4-difluorophenyl)-7-(3-methyl-1H-1,2,4-triazol-1-yl)-10,11,12,13,14,16,17,18-octahydro-15,2-(azeno)-8,4-(metheno)cyclopenta[h][1,6,10,12]oxatriazacycloheptadecine]",IC50,[1],5.3 nM
"Cc1ncn(-c2ccc3cc2OCCCCNc2nc(nc4c2CCC4c2ccc(F)cc2F)N3)n1 (centres unmarked) [Example 64B, 18-(2,4-difluorophenyl)-7-(3-methyl-1H-1,2,4-triazol-1-yl)-10,11,12,13,14,16,17,18-octahydro-15,2-(azeno)-8,4-(metheno)cyclopenta[h][1,6,10,12]oxatriazacycloheptadecine]",IC50,[2],10 to 100 nM
"Cc1ncn(-c2ccc3cc2OCCCN(C)c2nc(nc4c2CCC4c2ccc(F)cc2)N3)n1 (centres unmarked) [Example 65B, 13-methyl-7-(3-methyl-1H-1,2,4-triazol-1-yl)-17-(4-fluorophenyl)-11,12,13,15,16,17-hexahydro-10H-14,2-(azeno)-8,4-(metheno)cyclopenta[g][1,5,9,11]oxatriazacyclohexadecine]",IC50,[2],10 to 100 nM
"CC1(c2ccc(F)cc2)CCc2c3nc(nc21)Nc1ccc(C#N)c(c1)OC/C=C\CN3 (centres unmarked) [Example 68, (11E)-7-cyano-18-(4-fluorophenyl)-18-methyl-10,13,14,16,17,18-hexahydro-15,2-(azeno)-8,4-(metheno)cyclopenta[h][1,6,10,12]oxatriazacycloheptadecine]",IC50,[4],160 nM
"CC1(c2ccc(F)cc2)CCc2c3nc(nc21)Nc1ccc(C#N)c(c1)OC/C=C\CN3 (centres unmarked) [Example 69, (11Z)-7-cyano-18-(4-fluorophenyl)-18-methyl-10,13,14,16,17,18-hexahydro-15,2-(azeno)-8,4-(metheno)cyclopenta[h][1,6,10,12]oxatriazacycloheptadecine]",IC50,[4],120 nM
"(11E)-7-(3-methyl-1H-1,2,4-triazol-1-yl)-18-phenyl-10,13,14,16,17,18-hexahydro-15,2-(azeno)-8,4-(metheno)cyclopenta[h][1,6,10,12]oxatriazacycloheptadecine [Example 40A]",IC50,[3],< 10 nM
"(11E)-7-(3-methyl-1H-1,2,4-triazol-1-yl)-18-phenyl-10,13,14,16,17,18-hexahydro-15,2-(azeno)-8,4-(metheno)cyclopenta[h][1,6,10,12]oxatriazacycloheptadecine [Example 40B]",IC50,[4],25 nM
"(11E)-7-(4-chloro-1H-imidazol-1-yl)-18-phenyl-10,13,14,16,17,18-hexahydro-15,2-(azeno)-8,4-(metheno)cyclopenta[h][1,6,10,12]oxatriazacycloheptadecine [Example 2A]",IC50,[3],10 to 100 nM
"(11E)-7-(4-chloro-1H-imidazol-1-yl)-18-phenyl-10,13,14,16,17,18-hexahydro-15,2-(azeno)-8,4-(metheno)cyclopenta[h][1,6,10,12]oxatriazacycloheptadecine [Example 2B]",IC50,[4],15 nM
"(11E)-7-cyano-18-(2,4-difluorophenyl)-10,13,14,16,17,18-hexahydro-15,2-(azeno)-8,4-(metheno)cyclopenta[h][1,6,10,12]oxatriazacycloheptadecine [Example 25A]",IC50,[3],10 to 100 nM
"(11E)-7-cyano-18-(2,4-difluorophenyl)-10,13,14,16,17,18-hexahydro-15,2-(azeno)-8,4-(metheno)cyclopenta[h][1,6,10,12]oxatriazacycloheptadecine [Example 25B]",IC50,[4],53 nM
"(11Z)-7-(3-methyl-1H-1,2,4-triazol-1-yl)-18-phenyl-10,13,14,16,17,18-hexahydro-15,2-(azeno)-8,4-(metheno)cyclopenta[h][1,10,12]oxadiazacycloheptadecine [Example 58A]",IC50,[3],< 10 nM
"(11Z)-7-(3-methyl-1H-1,2,4-triazol-1-yl)-18-phenyl-10,13,14,16,17,18-hexahydro-15,2-(azeno)-8,4-(metheno)cyclopenta[h][1,10,12]oxadiazacycloheptadecine [Example 58B]",IC50,[4],24 nM
"(11Z)-7-(4-chloro-1H-imidazol-1-yl)-18-phenyl-10,13,14,16,17,18-hexahydro-15,2-(azeno)-8,4-(metheno)cyclopenta[h][1,6,10,12]oxatriazacycloheptadecine [Example 1A]",IC50,[4],3.9 nM
"(11Z)-7-(4-chloro-1H-imidazol-1-yl)-18-phenyl-10,13,14,16,17,18-hexahydro-15,2-(azeno)-8,4-(metheno)cyclopenta[h][1,6,10,12]oxatriazacycloheptadecine [Example 1B]",IC50,[3],10 to 100 nM
"(11Z)-7-cyano-18-phenyl-10,13,14,16,17,18-hexahydro-15,2-(azeno)-8,4-(metheno)cyclopenta[h][1,10,12]oxadiazacycloheptadecine [Example 36A]",IC50,[3],100 to 1000 nM
"(11Z)-18-(2,4-difluorophenyl)-7-(3-methyl-1H-1,2,4-triazol-1-yl)-10,13,14,16,17,18-hexahydro-15,2-(azeno)-8,4-(metheno)cyclopenta[h][1,6,10,12]oxatriazacycloheptadecine [Example 51A]",IC50,[3],< 10 nM
"(11Z)-18-(2,4-difluorophenyl)-7-(3-methyl-1H-1,2,4-triazol-1-yl)-10,13,14,16,17,18-hexahydro-15,2-(azeno)-8,4-(metheno)cyclopenta[h][1,6,10,12]oxatriazacycloheptadecine [Example 51B]",IC50,[3],10 to 100 nM
